# Data reported in PMC3914206.
# Key:
# Format in all cases: binding
# Settings in all cases: Compound Concentration 10 µM
# panel of 442 kinases [1] = molecular target: T1, panel of 442 kinases (Homo sapiens, UniProt P00533)
# T1 construct: purchased KINOMEscan
# Source text: (§1) We assessed the selectivity of members of this scaffold using the KINOMEscan methodology across a near comprehensive panel of 442 kinases [[18,27]].
# panel of 442 kinases [2] = molecular target: T2, panel of 442 kinases (Homo sapiens, UniProt P00533, G719S)
# T2 construct: purchased KINOMEscan
# T2 sequence (P00533 25-1210 G719S): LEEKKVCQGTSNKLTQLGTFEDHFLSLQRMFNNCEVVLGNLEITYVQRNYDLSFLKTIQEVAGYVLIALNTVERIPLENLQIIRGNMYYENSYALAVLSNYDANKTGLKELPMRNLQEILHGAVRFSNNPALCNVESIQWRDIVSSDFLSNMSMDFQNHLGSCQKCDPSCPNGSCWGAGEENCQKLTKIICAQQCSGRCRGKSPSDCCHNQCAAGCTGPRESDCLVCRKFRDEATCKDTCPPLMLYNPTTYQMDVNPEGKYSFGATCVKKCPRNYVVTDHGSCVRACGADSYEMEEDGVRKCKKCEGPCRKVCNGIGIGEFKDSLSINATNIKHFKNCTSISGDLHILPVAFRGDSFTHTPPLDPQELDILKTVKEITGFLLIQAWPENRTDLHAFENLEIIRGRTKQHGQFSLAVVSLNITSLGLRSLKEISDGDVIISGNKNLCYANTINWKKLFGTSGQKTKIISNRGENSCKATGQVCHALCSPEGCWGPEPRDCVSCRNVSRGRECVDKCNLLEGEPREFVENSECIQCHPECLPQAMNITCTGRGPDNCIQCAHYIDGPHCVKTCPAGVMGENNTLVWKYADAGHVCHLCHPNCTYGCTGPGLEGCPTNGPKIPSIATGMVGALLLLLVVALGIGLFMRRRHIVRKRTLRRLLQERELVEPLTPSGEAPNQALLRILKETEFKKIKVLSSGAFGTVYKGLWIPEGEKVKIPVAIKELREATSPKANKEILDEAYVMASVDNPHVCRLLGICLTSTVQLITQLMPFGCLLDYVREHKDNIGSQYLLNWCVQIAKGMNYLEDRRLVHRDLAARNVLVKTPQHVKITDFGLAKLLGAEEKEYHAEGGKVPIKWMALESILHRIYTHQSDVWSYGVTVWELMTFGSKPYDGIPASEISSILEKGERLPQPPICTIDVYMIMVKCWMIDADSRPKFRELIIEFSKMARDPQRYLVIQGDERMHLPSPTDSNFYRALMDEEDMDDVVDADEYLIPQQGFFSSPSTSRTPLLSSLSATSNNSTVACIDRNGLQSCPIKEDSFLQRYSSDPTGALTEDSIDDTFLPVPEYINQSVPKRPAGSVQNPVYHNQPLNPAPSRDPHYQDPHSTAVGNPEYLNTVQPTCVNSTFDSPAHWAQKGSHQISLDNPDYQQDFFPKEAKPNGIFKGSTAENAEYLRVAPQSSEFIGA
# Source text: as §1
# panel of 442 kinases [3] = molecular target: T3, panel of 442 kinases (Homo sapiens, UniProt P54762)
# T3 construct: purchased KINOMEscan
# T3 sequence (P54762 18-984): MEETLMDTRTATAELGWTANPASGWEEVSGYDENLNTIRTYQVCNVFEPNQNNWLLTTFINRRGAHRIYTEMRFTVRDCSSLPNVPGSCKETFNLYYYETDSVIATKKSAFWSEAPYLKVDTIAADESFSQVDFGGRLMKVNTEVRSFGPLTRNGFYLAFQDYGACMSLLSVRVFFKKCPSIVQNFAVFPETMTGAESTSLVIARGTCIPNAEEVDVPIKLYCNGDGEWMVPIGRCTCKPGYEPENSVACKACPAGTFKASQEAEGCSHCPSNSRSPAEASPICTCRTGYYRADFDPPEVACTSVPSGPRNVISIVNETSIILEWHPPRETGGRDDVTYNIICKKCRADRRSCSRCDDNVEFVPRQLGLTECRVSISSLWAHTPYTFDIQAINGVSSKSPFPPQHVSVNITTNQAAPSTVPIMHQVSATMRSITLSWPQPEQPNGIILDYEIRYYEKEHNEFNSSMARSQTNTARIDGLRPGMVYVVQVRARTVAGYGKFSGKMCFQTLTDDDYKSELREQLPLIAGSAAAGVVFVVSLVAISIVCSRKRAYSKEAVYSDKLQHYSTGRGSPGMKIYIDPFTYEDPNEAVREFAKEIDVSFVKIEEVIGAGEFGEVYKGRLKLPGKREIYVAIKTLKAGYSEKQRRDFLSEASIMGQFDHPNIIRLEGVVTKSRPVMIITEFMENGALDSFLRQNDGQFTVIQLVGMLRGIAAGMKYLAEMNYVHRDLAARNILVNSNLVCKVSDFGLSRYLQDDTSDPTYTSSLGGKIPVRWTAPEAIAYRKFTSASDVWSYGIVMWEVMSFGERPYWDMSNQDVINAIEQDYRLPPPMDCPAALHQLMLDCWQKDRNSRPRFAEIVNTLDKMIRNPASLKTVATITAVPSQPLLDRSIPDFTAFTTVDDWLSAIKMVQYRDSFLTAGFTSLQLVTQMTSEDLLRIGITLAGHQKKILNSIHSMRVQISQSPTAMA
# Source text: as §1
# T1 sequence (P00533 25-1210): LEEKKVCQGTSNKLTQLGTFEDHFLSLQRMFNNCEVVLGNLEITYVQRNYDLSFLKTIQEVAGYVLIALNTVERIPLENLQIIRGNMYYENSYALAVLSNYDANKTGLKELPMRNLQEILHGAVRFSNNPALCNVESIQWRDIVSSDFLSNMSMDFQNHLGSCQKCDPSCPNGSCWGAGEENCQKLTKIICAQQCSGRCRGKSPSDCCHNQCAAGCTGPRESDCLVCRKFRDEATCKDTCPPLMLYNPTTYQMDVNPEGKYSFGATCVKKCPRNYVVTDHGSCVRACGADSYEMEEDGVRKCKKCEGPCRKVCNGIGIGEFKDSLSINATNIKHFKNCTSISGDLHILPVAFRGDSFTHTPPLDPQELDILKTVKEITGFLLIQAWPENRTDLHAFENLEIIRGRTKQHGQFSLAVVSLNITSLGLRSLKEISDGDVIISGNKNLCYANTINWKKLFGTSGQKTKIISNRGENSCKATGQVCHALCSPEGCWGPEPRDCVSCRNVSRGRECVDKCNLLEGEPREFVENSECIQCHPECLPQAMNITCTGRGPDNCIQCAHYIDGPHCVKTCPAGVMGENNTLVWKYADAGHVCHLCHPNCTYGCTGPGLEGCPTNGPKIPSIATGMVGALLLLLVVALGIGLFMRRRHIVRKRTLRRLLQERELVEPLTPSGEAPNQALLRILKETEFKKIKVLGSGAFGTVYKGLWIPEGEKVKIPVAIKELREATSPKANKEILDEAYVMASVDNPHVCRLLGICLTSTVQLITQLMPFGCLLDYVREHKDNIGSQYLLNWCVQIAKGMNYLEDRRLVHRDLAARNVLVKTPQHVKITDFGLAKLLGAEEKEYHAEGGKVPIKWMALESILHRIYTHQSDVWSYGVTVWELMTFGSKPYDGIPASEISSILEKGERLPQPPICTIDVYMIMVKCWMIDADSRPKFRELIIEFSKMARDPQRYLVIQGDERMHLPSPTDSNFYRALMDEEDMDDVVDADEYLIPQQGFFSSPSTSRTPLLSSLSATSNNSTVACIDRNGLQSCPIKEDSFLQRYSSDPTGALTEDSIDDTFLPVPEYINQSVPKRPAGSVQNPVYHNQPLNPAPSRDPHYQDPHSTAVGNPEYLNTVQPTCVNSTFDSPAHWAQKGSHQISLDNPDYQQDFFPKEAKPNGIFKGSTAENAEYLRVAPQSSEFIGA
SMILES,KINOMEscan: EGFR (panel of 442 kinases [1]),KINOMEscan: EGFR(G719S) (panel of 442 kinases [2]),KINOMEscan: EPHB1 (panel of 442 kinases [3])
"COc1cc(C(=O)N2CCC(N3CCN(C)CC3)CC2)ccc1Nc1ncc2c(n1)N(C1CCCC1)c1ccccc1C(=O)N2C [Compound 25, 11-cyclopentyl-2-((2-methoxy-4-(4-(4-methylpiperazin-1-yl)piperidine-1-carbonyl)phenyl)amino)-5-methyl-5H-benzo[e]pyrimido[5,4-b][1,4]diazepin-6(11H)-one]",89,86,95
COc1cc(C(=O)N2CCC(N3CCN(C)CC3)CC2)ccc1Nc1ncc2c(n1)N1CCc3cccc(c31)C(=O)N2C [Compound 24],74,81,–
COc1cc(C(=O)N2CCC(N3CCN(C)CC3)CC2)ccc1Nc1ncc2c(n1)N(C)c1ccccc1C(=O)N2C [15 (LRRK2-IN-1)],84,86,98
CCOc1cc(C(=O)N2CCC(N3CCN(C)CC3)CC2)ccc1Nc1ncc2c(n1)N(C1CCCC1)c1ccccc1C(=O)N2C [Compound 26],100,96,95
